Assay results published in PubChem BioAssay (NCI).
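A five-concentration, 48-hour dose response in 96-well plates underlies each endpoint, interpolated linearly between surrounding concentrations. GI50 marks 50% less growth. TGI marks complete inhibition of growth.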

Assays:
Assay in all cases: growth of human tumour cells (NCI), 48 h
[1] = system: OVCAR-3 ovarian
[2] = system: A549 NSCLC
[3] = system: NCI-H522 lung
[4] = system: CAKI-1 renal
[5] = system: MALME-3M melanoma
[6] = system: HCC-2998 colon
[7] = system: HOP-92 NSCLC
[8] = system: MOLT-4 leukemia
[9] = system: SR leukemia
[10] = system: T-47D breast
[11] = system: HT29 colon
[12] = system: EKVX NSCLC
[13] = system: OVCAR-5 ovarian
[14] = system: MDA-MB-231 breast
[15] = system: HCT-15 colon
[16] = system: LOX IMVI melanoma
[17] = system: UO-31 renal
[18] = system: NCI-H226 lung
[19] = system: PC-3 prostate
[20] = system: CCRF-CEM leukemia
[21] = system: RPMI-8226 leukemia
[22] = system: SK-MEL-28 melanoma
[23] = system: HL-60(TB) leukemia
[24] = system: SF-268 CNS
[25] = system: SF-295 CNS
[26] = system: HCT-116 colon
[27] = system: SF-539 CNS
[28] = system: K-562 leukemia
[29] = system: 786-0 renal

CCC(=O)Nc1cc(Nc2cc(NC3CC3)n3ncc(C#N)c3n2)ccc1C
GI50 [1]: 1.1 µM | TGI [1]: 14.6 µM | GI50 [2]: 1.8 µM | TGI [2]: 17.3 µM | GI50 [3]: 2.48 µM | TGI [3]: 27.1 µM | GI50 [4]: 0.43 µM | TGI [4]: 3.29 µM | GI50 [5]: 2.2 µM | TGI [5]: 69.3 µM | GI50 [6]: 2.46 µM | TGI [6]: 18.9 µM | GI50 [7]: 0.449 µM | TGI [7]: 6.39 µM | GI50 [8]: 3.93 µM | TGI [8]: 52.2 µM | GI50 [9]: 1.78 µM | TGI [9]: > 100 µM | GI50 [10]: 1.05 µM | TGI [10]: 9.87 µM | GI50 [11]: 2.18 µM | TGI [11]: > 100 µM | GI50 [12]: 1.16 µM | TGI [12]: 45 µM | GI50 [13]: 0.955 µM | TGI [13]: 33 µM | GI50 [14]: 1.63 µM | TGI [14]: 23.3 µM | GI50 [15]: 1.25 µM | TGI [15]: 29.6 µM | GI50 [16]: 1.57 µM | TGI [16]: 12.9 µM | GI50 [17]: 2.09 µM | TGI [17]: 13.7 µM | GI50 [18]: 1.51 µM | TGI [18]: 16.6 µM | GI50 [19]: 1.73 µM | TGI [19]: 23.3 µM | GI50 [20]: 1.68 µM | TGI [20]: > 100 µM | GI50 [21]: 1.77 µM | TGI [21]: 17.6 µM | GI50 [22]: 4.02 µM | TGI [22]: > 100 µM | GI50 [23]: 0.6 µM | TGI [23]: 12.3 µM | GI50 [24]: 2.32 µM | TGI [24]: 57.4 µM | GI50 [25]: 2.34 µM | TGI [25]: 14.8 µM | GI50 [26]: 0.737 µM | TGI [26]: 12 µM | GI50 [27]: 1.81 µM | TGI [27]: 46.9 µM | GI50 [28]: 1.1 µM | TGI [28]: > 100 µM | GI50 [29]: 3.46 µM | TGI [29]: 43.5 µM
